The source made the active and inactive calls.
What was measured:
Type in all cases: functional, organism-based
Aspergillus flavus = experiment: Antifungal activity against Aspergillus flavus NRRL 6541 at 200 ug/disk by standard disk assay
Bacillus subtilis = experiment: Antibacterial activity against Bacillus subtilis ATCC 6051
Fusarium verticillioides = experiment: Antifungal activity against Fusarium verticillioides NRRL 25457 at 200 ug/disk by standard disk assay
Staphylococcus aureus = experiment: Antibacterial activity against Staphylococcus aureus ATCC 29213
Escherichia coli = experiment: Antibacterial activity against Escherichia coli ATCC 25922

Measured: Activity

C[C@H]1CCC[C@@H](O)/C=C\[C@H](O)/C=C/C(=O)O1
inactive: all assays above

— ChEMBL document CHEMBL1157323, “Chloriolide, a 12-membered macrolide from Chloridium virescens var. chlamydosporum (NRRL 37636)” (J Nat Prod, 2006)
